Laboratory results: US20250041227A1, “TABLET FORMULATIONS OF RBP4 INHIBITORS AND METHODS OF USE” (BELITE BIO, INC, priority 2021, published 2025)

Tested on: male cynomolgus monkeys
Assay: In-life clinical observations (tolerability)
Type: in vivo
Details: single PO 5 mg/animal per phase, 6 phases
Description: The test system and study design were as follows. A total of 4 male non-naïve cynomolgus monkeys were assigned to the study (age: >2 years old and body weight: 2.5-4 kg). Each animal received a single dose of capsule or tablet at the start of each phase and there were 6 phases in total. The same animals, Animal Nos. C1001, C1002, C1003 and C1004, were used for each phase with a minimum 5-day washout period between dosing for each phase, except for Animal No. C1002, Animal Tattoo No. C1708339, which was replaced by another non-naïve cynomolgus monkey, Animal Tattoo No. C1703319, due to dosing failure that happened in Phase 3. As a result, Animal Tattoo No. C1708339 was used in Phase 1 and 2, Animal Tattoo No. C1703319 was used in Phases 3 to 6. All animals were fasted overnight prior to dosing, food was returned at 4 hours post-dose.
Animals were physically examined prior to study initiation to confirm their health. Clinical observations were performed twice daily (approximately 9:30 a.m. and 4:00 p.m.). Cage-side observations for general health and appearance were also performed. On dosing day, animals were also observed before and after each sample collection time point. General condition, behavior, activity, excretion, respiration or other unusual observations noted throughout the study were recorded.

SMILES: CC(=O)N1CCc2c(C(=O)N3CCC(c4ccc(F)c(F)c4C(F)(F)F)CC3)n[nH]c2C1 [Compound 1, 1-(3-(4-(3,4-difluoro-2-(trifluoromethyl)phenyl)piperidine-1-carbonyl)-1,4,5,7-tetrahydro-6H-pyrazolo[3,4-c]pyridin-6-yl)ethan-1-one]
- adverse effects during the in-life phase: No adverse effects were observed
